How the values were obtained:
bovine serum albumin = bovine serum albumin (Bos taurus, UniProt P02769); settings: known drugs of Example 5, described as poor, medium or high binders; cited from earlier work
[1] = pKa by colloidal gold pH titration (ratio O.D. 620 nm/525 nm); settings: colloidal gold pH titration of 1 mM drugs, 1% DMSO, (2) number the two pKa of doxycycline; for pKa: buffered gold colloid (gold nanoparticle solution), pKa observed
Description: (§1) A series of 50 mM buffers of pH 2-12 was then prepared (phosphate [pH 2, 3, 6, 7, 8], acetate [pH 4 and 5] and borate [pH 9, 10, 11, 12]), which were further diluted 5-fold with the gold colloid solution. The final pH of the 10 mM buffered colloid so obtained was then recorded. Drug solutions (10 μl, 100 mM in DMSO) were then pipeted in 1 mL of the buffered colloid and the mixture was vortex-mixed. After 30 minutes of incubation, the solutions were pipeted in 96-well polystyrene plates and the O.D. at 620 nm and 525 nm were recorded. The ratio O.D. 620 nm/O.D. 525 nm was calculated. This ratio relates to the agglutination of the colloid (i.e., the higher the ratio, the higher the agglutination). Typically, the ionization of a molecule creates charge(s) that may facilitate the agglutination of the colloid. Thus, titering a molecule with buffered gold colloids over a range of pHs can allow one to determine the ionization constant from the interpolated mid-point of the sigmoid curve drawn from agglutinated to unagglutinated colloid as a function of pH.

[2] = Williams and Lemke 2002; (1), (2) number the two pKa of doxycycline; cited from earlier work
physchem = settings: pKa observed
Description: as §1

serum albumin = settings: literature (Goodman and Gillman 1996); cited from earlier work
[3] = Redox potential with PANI-COOH conductive polymer (O.D. 450 nm); assay type: physicochemical; settings: 100 μM drug, PANI-COOH at pH 4, 10 minutes room temperature; inferred from 450 nm signal
Description: The redox potential of known drugs were assayed. The known drug at a given final concentration (100 μM) was introduced in a buffered solution of a conductive polymer (poly[aniline-2-carboxylic acid], PANI-COOH) at pH 4. The solution was mixed and incubated at room temperature (10 minutes). The optical density was read at 450 nm. A sample blank containing the drug and phtalate buffer was prepared, incubated and read in the same way. The OD 450 nm of the blank solution was subtracted from the OD 450 nm of the conductive polymer reaction mixture. […] A linear relationship was observed between the 450 nm signal and the reduction potential of the known molecules (FIG. 15.), which allowed the inference of the reduction potential of NCEs.
Screening a library of 60 well-known drugs allowed identification of bromocriptine as a relatively strong […] (E=−364 mV), prazosin and chlorpropamide as relatively strong […] (E=747 and 848 mV), which is in agreement with literature data (Wardman P. (1989) Reduction potentials of one-electron couples involving free radicals in aqueous solution. J. Phys. Chem. Ref. Data 18, 1637-1755). Although a reductant drug may exert beneficial therapeutic effects, an oxidant may be toxic. […]

human serum albumin = human serum albumin (Homo sapiens, UniProt P02768); settings: literature (Westphal 1986); cited from earlier work
[4] = Volume of distribution in humans; settings: human
[5] = literature (Goodman and Gillman 1996); cited from earlier work

Sequence of bovine serum albumin (P02769 25-607): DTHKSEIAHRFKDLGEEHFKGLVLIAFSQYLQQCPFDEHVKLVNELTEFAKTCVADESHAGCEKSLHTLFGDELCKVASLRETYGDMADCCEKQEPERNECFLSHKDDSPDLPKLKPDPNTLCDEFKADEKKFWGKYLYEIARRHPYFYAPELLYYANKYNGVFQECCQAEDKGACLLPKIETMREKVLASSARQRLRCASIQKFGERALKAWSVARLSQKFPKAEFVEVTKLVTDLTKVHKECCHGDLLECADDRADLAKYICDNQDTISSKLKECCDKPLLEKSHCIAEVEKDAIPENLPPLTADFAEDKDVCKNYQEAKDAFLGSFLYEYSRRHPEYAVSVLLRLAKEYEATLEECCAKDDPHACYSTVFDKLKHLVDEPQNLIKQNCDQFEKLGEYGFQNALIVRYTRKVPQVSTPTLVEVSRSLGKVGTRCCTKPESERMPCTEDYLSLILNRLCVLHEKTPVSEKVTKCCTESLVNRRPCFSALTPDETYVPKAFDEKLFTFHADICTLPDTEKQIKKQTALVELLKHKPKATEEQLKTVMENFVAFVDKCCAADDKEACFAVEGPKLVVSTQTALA
Sequence of human serum albumin (P02768 25-609): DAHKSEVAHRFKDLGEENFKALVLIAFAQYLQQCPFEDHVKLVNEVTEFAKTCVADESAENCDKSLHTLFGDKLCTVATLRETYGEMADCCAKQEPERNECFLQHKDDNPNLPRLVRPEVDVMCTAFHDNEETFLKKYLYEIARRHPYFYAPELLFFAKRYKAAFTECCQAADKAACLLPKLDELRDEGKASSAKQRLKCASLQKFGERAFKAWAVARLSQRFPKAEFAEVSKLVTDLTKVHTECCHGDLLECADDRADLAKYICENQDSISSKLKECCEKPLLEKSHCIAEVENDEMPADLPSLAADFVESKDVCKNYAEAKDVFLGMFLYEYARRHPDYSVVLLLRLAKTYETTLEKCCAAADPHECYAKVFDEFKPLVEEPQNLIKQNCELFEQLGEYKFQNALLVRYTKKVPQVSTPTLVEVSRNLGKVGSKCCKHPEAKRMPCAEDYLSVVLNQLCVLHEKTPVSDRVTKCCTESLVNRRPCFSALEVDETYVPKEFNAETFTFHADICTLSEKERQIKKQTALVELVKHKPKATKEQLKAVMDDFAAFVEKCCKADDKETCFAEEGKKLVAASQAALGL

## CC(=O)Oc1ccccc1C(=O)O [Aspirin, Acetylsalicylic acid]
Bovine serum albumin
  binder class to the protein (bovine serum albumin): poor binders

## CN(C)CCC(c1ccc(Cl)cc1)c1ccccn1 (stereo not shown) [Chlorpheniramine]
Bovine serum albumin
  binder class to the protein (bovine serum albumin): medium binders

## Nc1ccc(S(=O)(=O)c2ccc(N)cc2)cc1 [Dapsone]
[1]
  pKa: 3.9
[2]
  pKa from reference: 2.4

## CC[C@H]1OC(=O)[C@H](C)[C@@H](O[C@H]2C[C@@](C)(OC)[C@@H](O)[C@H](C)O2)[C@H](C)[C@@H](O[C@@H]2O[C@H](C)C[C@H](N(C)C)[C@H]2O)[C@](C)(O)C[C@@H](C)C(=O)[C@H](C)[C@@H](O)[C@]1(C)O [Erythromycine, Erythromycin]
Bovine serum albumin
  binder class to the protein (bovine serum albumin): medium binders
[1]
  pKa: 6.9

## CCOc1ccc2ccccc2c1C(=O)N[C@@H]1C(=O)N2[C@@H]1SC(C)(C)[C@@H]2C(=O)O [Nafcillin]
physchem
  pKa: 3

## CC(=O)Nc1ccc(O)cc1 [Paracetamol]
[1]
  pKa observed: 9.5
[2]
  pKa from reference: 9.4

## C=C[C@H]1C[N@@]2CC[C@H]1C[C@@H]2[C@@H](O)c1ccnc2ccc(OC)cc12 [Quinidine]
[1]
  pKa: 7.4

## C=CC1=C(C)/C(=C/c2[nH]c(Cc3[nH]c(/C=C4\NC(=O)C(C)=C4C=C)c(C)c3CCC(=O)O)c(CCC(=O)O)c2C)NC1=O [bilirubin]
Serum albumin
  bound by serum albumin / by the protein in plasma: ~100%

## CCCNC(=O)NS(=O)(=O)c1ccc(Cl)cc1 [chlorpropamide]
[3]
  reduction potential E: 848 mV

## C[C@H]1O[C@@H](O[C@H]2[C@@H](O)C[C@H](O[C@H]3[C@@H](O)C[C@H](O[C@H]4CC[C@@]5(C)[C@H](CC[C@@H]6[C@@H]5C[C@@H](O)[C@]5(C)[C@@H](C7=CC(=O)OC7)CC[C@]65O)C4)O[C@@H]3C)O[C@@H]2C)C[C@H](O)[C@@H]1O [digoxin, Digoxin]
Human serum albumin
  apparent affinity for human serum albumin determined by dialysis: 1.85.10^5 liters per mole

## COc1cc2nc(N3CCN(C(=O)c4ccco4)CC3)nc(N)c2cc1OC [prazosin]
[3]
  reduction potential E: 747 mV

## Cn1c(=O)c2[nH]cnc2n(C)c1=O [theophylline]
[4]
  Vd: 0.551 L/kg
[5]
  volume of distribution observed experimentally: 0.50±0.16 liters per Kg
